From the NIST ThermoML archive (doi:10.1016/j.fluid.2010.10.028)

Assay: xn = mol fraction of the nth substance listed
Conditions: Liquid, Vibrating tube method

CC(C)=O [acetone] + CCCCCCC
Conditions	mass density [kg/m3]
367.5 K, 89850 kPa, x1 = 0.801	760.09
367.5 K, 89870 kPa, x1 = 0.492	727.6
367.5 K, 94840 kPa, x1 = 0.801	763.33
367.5 K, 94860 kPa, x1 = 0.492	730.65
367.5 K, 99820 kPa, x1 = 0.801	766.48
367.5 K, 104790 kPa, x1 = 0.801	769.51
367.5 K, 109770 kPa, x1 = 0.801	772.47
367.5 K, 114840 kPa, x1 = 0.801	775.42
367.5 K, 119830 kPa, x1 = 0.801	778.22
367.5 K, 124850 kPa, x1 = 0.801	780.96
367.5 K, 129850 kPa, x1 = 0.801	783.62
377.39 K, 1230 kPa, x1 = 0.611	632.91
377.39 K, 4860 kPa, x1 = 0.611	640.68
377.39 K, 9830 kPa, x1 = 0.7024	659.14
377.39 K, 9860 kPa, x1 = 0.611	650.09
377.39 K, 14860 kPa, x1 = 0.611	658.35
377.39 K, 39860 kPa, x1 = 0.611	690.09
377.39 K, 74880 kPa, x1 = 0.611	720.69
377.39 K, 84850 kPa, x1 = 0.611	727.78
377.39 K, 99800 kPa, x1 = 0.611	737.52
377.39 K, 119850 kPa, x1 = 0.611	749.19
377.39 K, 124860 kPa, x1 = 0.611	751.9
377.4 K, 1220 kPa, x1 = 0.492	624.83
377.4 K, 1220 kPa, x1 = 0.7024	641.88
377.4 K, 1230 kPa, x1 = 0.801	652.62
377.4 K, 4820 kPa, x1 = 0.7024	649.63
377.4 K, 4850 kPa, x1 = 0.801	660.44
377.4 K, 4860 kPa, x1 = 0.492	632.5
377.4 K, 9850 kPa, x1 = 0.492	641.73
377.4 K, 9860 kPa, x1 = 0.801	669.95
377.4 K, 14830 kPa, x1 = 0.7024	667.51
377.4 K, 14850 kPa, x1 = 0.801	678.33
377.4 K, 14860 kPa, x1 = 0.492	649.89
377.4 K, 19830 kPa, x1 = 0.7024	675.07
377.4 K, 19850 kPa, x1 = 0.492	657.2
377.4 K, 19850 kPa, x1 = 0.801	685.9
377.4 K, 19860 kPa, x1 = 0.611	665.8
377.4 K, 24840 kPa, x1 = 0.492	663.85
377.4 K, 24840 kPa, x1 = 0.7024	681.95
377.4 K, 24860 kPa, x1 = 0.611	672.6
377.4 K, 24870 kPa, x1 = 0.801	692.89
377.4 K, 29840 kPa, x1 = 0.7024	688.29
377.4 K, 29860 kPa, x1 = 0.611	678.86
377.4 K, 34830 kPa, x1 = 0.7024	694.18
377.4 K, 34840 kPa, x1 = 0.492	675.68
377.4 K, 34870 kPa, x1 = 0.611	684.68
377.4 K, 39820 kPa, x1 = 0.7024	699.65
377.4 K, 39850 kPa, x1 = 0.492	681.01
377.4 K, 44820 kPa, x1 = 0.7024	704.82
377.4 K, 44850 kPa, x1 = 0.611	695.17
377.4 K, 44870 kPa, x1 = 0.492	686.02
377.4 K, 49820 kPa, x1 = 0.7024	709.68
377.4 K, 49840 kPa, x1 = 0.492	690.72
377.4 K, 49850 kPa, x1 = 0.611	699.96
377.4 K, 54810 kPa, x1 = 0.7024	714.29
377.4 K, 54870 kPa, x1 = 0.801	725.65
377.4 K, 54930 kPa, x1 = 0.611	704.59
377.4 K, 59810 kPa, x1 = 0.7024	718.67
377.4 K, 59840 kPa, x1 = 0.492	699.41
377.4 K, 59850 kPa, x1 = 0.801	730.07
377.4 K, 59940 kPa, x1 = 0.611	708.91
377.4 K, 64790 kPa, x1 = 0.7024	722.84
377.4 K, 64830 kPa, x1 = 0.801	734.28
377.4 K, 64920 kPa, x1 = 0.611	713
377.4 K, 69890 kPa, x1 = 0.7024	726.94
377.4 K, 69900 kPa, x1 = 0.611	716.92
377.4 K, 69920 kPa, x1 = 0.492	707.37
377.4 K, 69930 kPa, x1 = 0.801	738.44
377.4 K, 74790 kPa, x1 = 0.4	757.14
377.4 K, 74790 kPa, x1 = 0.8992	757.14
377.4 K, 74870 kPa, x1 = 0.7024	730.75
377.4 K, 74920 kPa, x1 = 0.801	742.33
377.4 K, 79860 kPa, x1 = 0.7024	734.43
377.4 K, 79880 kPa, x1 = 0.611	724.31
377.4 K, 79890 kPa, x1 = 0.492	714.63
377.4 K, 79910 kPa, x1 = 0.801	746.08
377.4 K, 84840 kPa, x1 = 0.7024	737.97
377.4 K, 84870 kPa, x1 = 0.492	718.02
377.4 K, 84910 kPa, x1 = 0.801	749.68
377.4 K, 89820 kPa, x1 = 0.7024	741.37
377.4 K, 89840 kPa, x1 = 0.611	731.15
377.4 K, 89860 kPa, x1 = 0.492	721.32
377.4 K, 89880 kPa, x1 = 0.801	753.15
377.4 K, 94790 kPa, x1 = 0.7024	744.65
377.4 K, 94820 kPa, x1 = 0.611	734.38
377.4 K, 94830 kPa, x1 = 0.492	724.48
377.4 K, 94860 kPa, x1 = 0.801	756.48
377.4 K, 99780 kPa, x1 = 0.7024	747.85
377.4 K, 99820 kPa, x1 = 0.492	727.55
377.4 K, 99840 kPa, x1 = 0.801	759.75
377.4 K, 104750 kPa, x1 = 0.7024	750.93
377.4 K, 104780 kPa, x1 = 0.611	740.53
